Calls of active or inactive are those of the source. The calls are words filed in the database; no cut-off is given here.
Legend:
[1] = Inhibition of Saccharomyces cerevisiae alpha-glucosidase using pNPG as substrate
[2] = Non-competitive inhibition of Saccharomyces cerevisiae alpha-glucosidase assessed as inhibition constant by secondary re-plot of Lineweaver-burk plot analysis
Saccharomyces cerevisiae [3] = assay: Potency index, ratio of resveratrol IC50 to test compound IC50 for inhibition of Saccharomyces cerevisiae alpha-glucosidase using pNPG as substrate
Saccharomyces cerevisiae [4] = assay: Non-competitive inhibition of Saccharomyces cerevisiae alpha-glucosidase assessed as decrease in Vmax without affecting Km using varying levels of p-NPG as substrate by Lineweaver-burk plot analysis

SMILES | IC50 [1] | also measured
N#Cc1cccc(CN2C(=O)/C(=N\Nc3nncs3)c3ccccc32)c1 | > 200 µM | –
O=C1/C(=N\Nc2nncs2)c2ccccc2N1Cc1ccccc1Cl | 8.5 µM | –
Cc1cccc(CN2C(=O)/C(=N\Nc3nncs3)c3ccccc32)c1 | 32.3 µM | –
O=C1/C(=N\Nc2nncs2)c2ccccc2N1Cc1ccccc1 | 21 µM | –
O=C1/C(=N\Nc2nncs2)c2ccccc2N1Cc1ccccc1Br | 13.2 µM | –
N#Cc1ccccc1CN1C(=O)/C(=N\Nc2nncs2)c2ccccc21 | > 200 µM | –
Oc1ccc(/C=C/c2cc(O)cc(O)c2)cc1 [RESVERATROL] | 22 µM | –
O=C1/C(=N\Nc2nncs2)c2ccccc2N1Cc1ccc(Cl)cc1 | 3.12 µM | Ki [2]: 2.76 µM; Ratio IC50 (Saccharomyces cerevisiae [3]): 7; inhibition (Saccharomyces cerevisiae [4]): Active
O=C1/C(=N\Nc2nncs2)c2ccccc2N1Cc1cccc(Cl)c1 | 7.25 µM | –
COc1ccc(CN2C(=O)/C(=N\Nc3nncs3)c3ccccc32)cc1 | 46 µM | –
Cc1ccc(CN2C(=O)/C(=N\Nc3nncs3)c3ccccc32)cc1 | 29.2 µM | –
COc1cccc(CN2C(=O)/C(=N\Nc3nncs3)c3ccccc32)c1 | 42.3 µM | –
O=C1/C(=N\Nc2nncs2)c2ccccc2N1Cc1ccccc1F | 18.4 µM | –
Cc1ccccc1CN1C(=O)/C(=N\Nc2nncs2)c2ccccc21 | 25.1 µM | –
